Drawing on US11279687B2, “Compounds and compositions for the inhibition of NAMPT” (Valo Health, Inc., priority 2010, dated 2022), this text covers IC50 for 38 compounds.

What is called IC50 is the midpoint of a concentration-inhibition curve.

The target in one experiment is NAMPT (Homo sapiens (Human), UniProt P43490). Nature of the experiment: NAMPT biochemical inhibition assay (NMN quantified by mass spectrometry). The settings on record: NAMPT biochemical inhibition; read-out: Biochem IC50.
Chain of NAMPT (P43490 whole entry): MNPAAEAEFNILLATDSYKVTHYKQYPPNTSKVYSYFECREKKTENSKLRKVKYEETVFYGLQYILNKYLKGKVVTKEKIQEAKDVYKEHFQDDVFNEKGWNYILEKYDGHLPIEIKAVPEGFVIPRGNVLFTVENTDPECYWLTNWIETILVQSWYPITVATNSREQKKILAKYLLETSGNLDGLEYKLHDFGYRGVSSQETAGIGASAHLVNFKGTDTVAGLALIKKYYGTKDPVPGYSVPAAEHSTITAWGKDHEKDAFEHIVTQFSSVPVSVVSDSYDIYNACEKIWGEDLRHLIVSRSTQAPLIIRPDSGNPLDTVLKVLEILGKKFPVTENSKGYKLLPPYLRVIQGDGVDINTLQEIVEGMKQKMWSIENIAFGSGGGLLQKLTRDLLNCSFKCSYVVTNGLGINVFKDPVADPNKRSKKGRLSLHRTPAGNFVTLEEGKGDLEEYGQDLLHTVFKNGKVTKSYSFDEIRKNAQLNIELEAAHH
For another experiment, the system named is A2780 cells. Put plainly: In-vitro cell proliferation assay (SRB), A2780 cells.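 Also: viable cell number read as SRB absorbance, background from media-only wells subtracted, IC50 interpolated from percent inhibition at two bracketing compound concentrations.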 The experiment is classed as cell-based. The settings on record: A2780 cells, 72 hours, SRB, read-out: A2780 IC50.

Each structure is given as a SMILES string. Where two headings read alike, the source gives them in different places.

Consider `Cc1cc(Cl)ccc1S(=O)(=O)c1ccc(NC(=O)NCc2cccnc2)cc1` [3-{4-[(4-chloro-2-methylbenzene)sulfonyl]phenyl}-1-(pyridin-3-ylmethyl)urea], for which the IC50 at NAMPT turned out to be 6 nM; with A2780 cells (Homo sapiens, A2780, 72 h), 755 nM.

Regarding `O=C(NCc1cccnc1)Nc1ccc(S(=O)(=O)c2ccc(Cl)c(F)c2)cc1` [3-{4-[(4-chloro-3-fluorobenzene)sulfonyl]phenyl}-1-(pyridin-3-ylmethyl)urea], the IC50 at NAMPT is 3 nM; in the experiment on A2780 cells (Homo sapiens, A2780, 72 h), 221 nM.

Turning to `COc1cc(S(=O)(=O)c2ccc(NC(=O)NCc3cccnc3)cc2)ccc1Cl` [3-{4-[(4-chloro-3-methoxybenzene)sulfonyl]phenyl}-1-(pyridin-3-ylmethyl)urea], the IC50 on NAMPT is 4.4 nM; with A2780 cells (Homo sapiens, A2780, 72 h) it was 63.2 nM.

On to `O=C(NCc1cccnc1)Nc1ccc([S+]([O-])c2ccc(Cl)cc2)cc1` (stereo not shown) [3-{4-[(4-chlorobenzene)sulfmyl]phenyl}-1-(pyridin-3-ylmethyl)urea], for which the IC50 on NAMPT is 8 nM; in the experiment with A2780 cells (Homo sapiens, A2780, 72 h) it was 41 nM.

For the compound `O=C(NCc1cccnc1)Nc1ccc(S(=O)(=O)Nc2ccc(Cl)c3ccccc23)cc1` [3-{4-[(4-chloronaphthalen-1-yl)sulfamoyl]phenyl}-1-(pyridin-3-ylmethyl)urea], the IC50 stood at 5 nM at NAMPT and 53 nM in the experiment with A2780 cells (Homo sapiens, A2780, 72 h).

`CCOc1ccc(NS(=O)(=O)c2ccc(NC(=O)NCc3cccnc3)cc2)c(F)c1` [3-{4-[(4-ethoxy-2-fluorophenyl)sulfamoyl]phenyl}-1-(pyridin-3-ylmethyl)urea]: the IC50 on NAMPT came out at 4 nM; in the experiment with A2780 cells (Homo sapiens, A2780, 72 h), 157 nM.

With `CCOc1ccc(S(=O)(=O)c2ccc(NC(=O)NCc3cccnc3)cc2)cc1F` [3-{4-[(4-ethoxy-3-fluorobenzene)sulfonyl]phenyl}-1-(pyridin-3-ylmethyl)urea], the IC50 turned out to be 1.2 nM at NAMPT and 21.7 nM with A2780 cells (Homo sapiens, A2780, 72 h).

With `CCOc1ccc(S(=O)(=O)c2ccc(NC(=O)NCc3cccnc3)cc2)cc1` [3-{4-[(4-ethoxybenzene)sulfonyl]phenyl}-1-(pyridin-3-ylmethyl)urea], the IC50 on NAMPT was 2.2 nM; with A2780 cells (Homo sapiens, A2780, 72 h) it was 100 to 1000 nM.

With `CCc1ccc(S(=O)(=O)c2ccc(NC(=O)NCc3cccnc3)cc2)cc1` [3-{4-[(4-ethylbenzene)sulfonyl]phenyl}-1-(pyridin-3-ylmethyl)urea], the IC50 came out at 3 nM on NAMPT and 533 nM in the experiment on A2780 cells (Homo sapiens, A2780, 72 h).

Consider `COc1cc(F)ccc1S(=O)(=O)c1ccc(NC(=O)NCc2cccnc2)cc1` [3-{4-[(4-fluoro-2-methoxybenzene)sulfonyl]phenyl}-1-(pyridin-3-ylmethyl)urea], for which the IC50 on NAMPT came to 2 nM; in the experiment with A2780 cells (Homo sapiens, A2780, 72 h), 28.2 nM.

Take `COc1cc(F)ccc1NS(=O)(=O)c1ccc(NC(=O)NCc2cccnc2)cc1` [3-{4-[(4-fluoro-2-methoxyphenyl)sulfamoyl]phenyl}-1-(pyridin-3-ylmethyl)urea]: the IC50 on NAMPT turned out to be 7 nM; in the experiment on A2780 cells (Homo sapiens, A2780, 72 h), 116 nM.

For `Cc1cc(F)ccc1S(=O)(=O)c1ccc(NC(=O)NCc2cccnc2)cc1` [3-{4-[(4-fluoro-2-methylbenzene)sulfonyl]phenyl}-1-(pyridin-3-ylmethyl)urea], the IC50 is 5 nM at NAMPT and 287 nM in the experiment with A2780 cells (Homo sapiens, A2780, 72 h).

Take `COc1cc(S(=O)(=O)c2ccc(NC(=O)NCc3cccnc3)cc2)ccc1F` [3-{4-[(4-fluoro-3-methoxybenzene)sulfonyl]phenyl}-1-(pyridin-3-ylmethyl)urea]: the IC50 came out at 3.7 nM on NAMPT and 44.6 nM in the experiment on A2780 cells (Homo sapiens, A2780, 72 h).

Take `Cc1cc(S(=O)(=O)c2ccc(NC(=O)NCc3cccnc3)cc2)ccc1F` [3-{4-[(4-fluoro-3-methylbenzene)sulfonyl]phenyl}-1-(pyridin-3-ylmethyl)urea]: the IC50 at NAMPT was 3.7 nM; in the experiment with A2780 cells (Homo sapiens, A2780, 72 h), 100 to 1000 nM.

Take `CS(=O)(=O)c1ccc(S(=O)(=O)c2ccc(NC(=O)NCc3cccnc3)cc2)cc1` [3-{4-[(4-methanesulfonylbenzene)sulfonyl]phenyl}-1-(pyridin-3-ylmethyl)urea]: the IC50 at NAMPT came out at 2 nM; with A2780 cells (Homo sapiens, A2780, 72 h), 91 nM.

For the compound `COc1ccc(S(=O)(=O)c2ccc(NC(=O)NCc3cccnc3)cc2)c(C)c1` [3-{4-[(4-methoxy-2-methylbenzene)sulfonyl]phenyl}-1-(pyridin-3-ylmethyl)urea], the IC50 was 8 nM on NAMPT and 352 nM with A2780 cells (Homo sapiens, A2780, 72 h).

As to `COc1c(C)cc(S(=O)(=O)c2ccc(NC(=O)NCc3cccnc3)cc2)cc1C` [3-{4-[(4-methoxy-3,5-dimethylbenzene)sulfonyl]phenyl}-1-(pyridin-3-ylmethyl)urea], the IC50 on NAMPT turned out to be 2.1 nM; in the experiment on A2780 cells (Homo sapiens, A2780, 72 h), 8.9 nM.

As to `COc1ccc(S(=O)(=O)c2ccc(NC(=O)NCc3cccnc3)cc2)cc1` [3-{4-[(4-methoxybenzene)sulfonyl]phenyl}-1-(pyridin-3-ylmethyl)urea], the IC50 on NAMPT was 2.4 nM; in the experiment with A2780 cells (Homo sapiens, A2780, 72 h), 100 to 1000 nM.

In the case of `Cc1ccc(S(=O)(=O)c2ccc(NC(=O)NCc3cccnc3)cc2)cc1` [3-{4-[(4-methylbenzene)sulfonyl]phenyl}-1-(pyridin-3-ylmethyl)urea], the IC50 at NAMPT came out at 4.33 nM; in the experiment with A2780 cells (Homo sapiens, A2780, 72 h) it was 141 nM.

For `CC(C)(C)c1ccc(NS(=O)(=O)c2ccc(NC(=O)NCc3cccnc3)cc2)c(Cl)c1` [3-{4-[(4-tert-butyl-2-chlorophenyl)sulfamoyl]phenyl}-1-(pyridin-3-ylmethyl)urea], the IC50 was 1.4 nM on NAMPT and 97 nM in the experiment with A2780 cells (Homo sapiens, A2780, 72 h).

With `COc1ccc(C(C)=O)cc1S(=O)(=O)c1ccc(NC(=O)NCc2cccnc2)cc1` [3-{4-[(5-acetyl-2-methoxybenzene)sulfonyl]phenyl}-1-(pyridin-3-ylmethyl)urea], the IC50 on NAMPT was 1.3 nM; in the experiment with A2780 cells (Homo sapiens, A2780, 72 h), 1.7 nM.

For the compound `COc1ccc(Cl)cc1S(=O)(=O)c1ccc(NC(=O)NCc2cccnc2)cc1` [3-{4-[(5-chloro-2-methoxybenzene)sulfonyl]phenyl}-1-(pyridin-3-ylmethyl)urea], the IC50 on NAMPT stood at 5 nM; with A2780 cells (Homo sapiens, A2780, 72 h), 21 nM.

Turning to `Cc1ccc(Cl)cc1NS(=O)(=O)c1ccc(NC(=O)NCc2cccnc2)cc1` [3-{4-[(5-chloro-2-methylphenyl)sulfamoyl]phenyl}-1-(pyridin-3-ylmethyl)urea], the IC50 at NAMPT was 1 nM; with A2780 cells (Homo sapiens, A2780, 72 h), 35 nM.

Consider `COc1ccc(F)cc1S(=O)(=O)c1ccc(NC(=O)NCc2cccnc2)cc1` [3-{4-[(5-fluoro-2-methoxybenzene)sulfonyl]phenyl}-1-(pyridin-3-ylmethyl)urea], for which the IC50 on NAMPT was 2 nM; with A2780 cells (Homo sapiens, A2780, 72 h), 4 nM.

Consider `COc1ccc(F)cc1NS(=O)(=O)c1ccc(NC(=O)NCc2cccnc2)cc1` [3-{4-[(5-fluoro-2-methoxyphenyl)sulfamoyl]phenyl]-1-(pyridin-3-ylmethyl)urea], for which the 50% inhibitory concentration (IC50) at NAMPT was 1 nM; in the experiment with A2780 cells (Homo sapiens, A2780, 72 h), 33 nM.

On to `Cc1ccc(F)cc1S(=O)(=O)c1ccc(NC(=O)NCc2cccnc2)cc1` [3-{4-[(5-fluoro-2-methylbenzene)sulfonyl]phenyl}-1-(pyridin-3-ylmethyl)urea], for which the half-maximal inhibitory concentration (IC50) on NAMPT amounted to 4 nM; in the experiment with A2780 cells (Homo sapiens, A2780, 72 h), 489 nM.

In the case of `COc1ccc(C)c(NS(=O)(=O)c2ccc(NC(=O)NCc3cccnc3)cc2)c1` [3-{4-[(5-methoxy-2-methylphenyl)sulfamoyl]phenyl}-1-(pyridin-3-ylmethyl)urea], the IC50 turned out to be 2 nM on NAMPT and 79 nM in the experiment on A2780 cells (Homo sapiens, A2780, 72 h).

Regarding `CCN(Cc1ccccc1)S(=O)(=O)c1ccc(NC(=O)NCc2cccnc2)cc1` [3-{4-[benzyl(ethyl)sulfamoyl]phenyl}-1-(pyridin-3-ylmethyl)urea], the IC50 on NAMPT came to 0.9 nM; in the experiment on A2780 cells (Homo sapiens, A2780, 72 h), 7 nM.

Turning to `CN(Cc1ccccc1)S(=O)(=O)c1ccc(NC(=O)NCc2cccnc2)cc1` [3-{4-[benzyl(methyl)sulfamoyl]phenyl}-1-(pyridin-3-ylmethyl)urea], the IC50 is 1.1 nM on NAMPT and 107 nM in the experiment on A2780 cells (Homo sapiens, A2780, 72 h).

`CC(C)N(Cc1ccccc1)S(=O)(=O)c1ccc(NC(=O)NCc2cccnc2)cc1` [3-{4-[benzyl(propan-2-yl)sulfamoyl]phenyl}-1-(pyridin-3-ylmethyl)urea]: the IC50 on NAMPT turned out to be 2 nM; in the experiment with A2780 cells (Homo sapiens, A2780, 72 h), 26 nM.

Consider `CCN(C1CCCCC1)S(=O)(=O)c1ccc(NC(=O)NCc2cccnc2)cc1` [3-{4-[cyclohexyl(ethyl)sulfamoyl]phenyl}-1-(pyridin-3-ylmethyl)urea], for which the IC50 at NAMPT worked out at 5 nM; with A2780 cells (Homo sapiens, A2780, 72 h), 123 nM.

In the case of `O=C(NCc1ccc[n+]([O-])c1)Nc1ccc([S+]([O-])c2ccc(Cl)cc2)cc1` (stereo not shown) [3-{[({4-[(4-chlorobenzene)sulfinyl]phenyl}carbamoyl)amino]methyl}pyridin-1-ium-1-olate], the IC50 was found to be 444 nM at NAMPT and 20600 nM in the experiment on A2780 cells.

As for `O=C(NCc1ccc[n+]([O-])c1)Nc1ccc(S(=O)(=O)c2ccc(Cl)cc2)cc1` [3-{[({4-[(4-chlorobenzene)sulfonyl]phenyl}carbamoyl)amino]methyl}pyridin-1-ium-1-olate], the values for the IC50 at NAMPT and in the experiment on A2780 cells were 728 nM and greater than 30000 nM, respectively.

Consider `O=C(NCc1ccc2nccn2c1)Nc1ccc(S(=O)(=O)N2CC3CCC(C2)O3)cc1` [3-{imidazo[1,2-a]pyridin-6-ylmethyl}-1-(4-{8-oxa-3-azabicyclo[3.2.1]octane-3-sulfonyl}phenyl)urea], for which the IC50 came out at 8 nM at NAMPT and 6 nM with A2780 cells (Homo sapiens, A2780, 72 h).

Consider `O=C(Nc1cccnc1)c1ccc(S(=O)(=O)c2ccccc2)cc1` [4-(benzenesulfonyl)-N-(pyridin-3-yl)benzamide], for which the IC50 on NAMPT was found to be 1890 nM; in the experiment with A2780 cells (Homo sapiens, A2780, 72 h), 2730 nM.

As to `O=C(NCc1cccnc1)c1ccc(S(=O)(=O)c2ccccc2)cc1` [4-(benzenesulfonyl)-N-(pyridin-3-ylmethyl)benzamide], the IC50 is 80.5 nM at NAMPT and 216 nM in the experiment with A2780 cells (Homo sapiens, A2780, 72 h).

As for `O=C(Nc1ccncc1)c1ccc(S(=O)(=O)c2ccccc2)cc1` [4-(benzenesulfonyl)-N-(pyridin-4-yl)benzamide], the IC50 came to 651 nM on NAMPT and 1310 nM with A2780 cells (Homo sapiens, A2780, 72 h).

As for `O=C(NCc1ccn2ccnc2c1)c1ccc(S(=O)(=O)c2ccccc2)cc1` [4-(benzenesulfonyl)-N-{imidazo[1,2-a]pyridin-7-ylmethyl}benzamide], the IC50 at NAMPT was 30.8 nM; in the experiment on A2780 cells (Homo sapiens, A2780, 72 h), 25.9 nM.
